Article PMC3710586 (NeuroImage, 2010)
“And” between values parts separate entries of the source, which are not always exact repeats. Equal entries are not always repeated. “Also recorded” adds a separate entry of the source. Where two headings read alike, the source gives them in different places.

Key:
[1] = dogs; ref Mattiuz et al., 2003; cited from earlier work
[2] = test system: norepinephrine transporters (NET); settings: rhesus monkeys, cited from earlier work
[3] = test system: norepinephrine transporters (NET); settings: humans, cited from earlier work
[4] = biological target: norepinephrine transporters (NET) (Macaca mulatta, UniProt Q9MYW8)
Sequence of norepinephrine transporters (NET) (Macaca mulatta, UniProt Q9MYW8) (Q9MYW8 1-617): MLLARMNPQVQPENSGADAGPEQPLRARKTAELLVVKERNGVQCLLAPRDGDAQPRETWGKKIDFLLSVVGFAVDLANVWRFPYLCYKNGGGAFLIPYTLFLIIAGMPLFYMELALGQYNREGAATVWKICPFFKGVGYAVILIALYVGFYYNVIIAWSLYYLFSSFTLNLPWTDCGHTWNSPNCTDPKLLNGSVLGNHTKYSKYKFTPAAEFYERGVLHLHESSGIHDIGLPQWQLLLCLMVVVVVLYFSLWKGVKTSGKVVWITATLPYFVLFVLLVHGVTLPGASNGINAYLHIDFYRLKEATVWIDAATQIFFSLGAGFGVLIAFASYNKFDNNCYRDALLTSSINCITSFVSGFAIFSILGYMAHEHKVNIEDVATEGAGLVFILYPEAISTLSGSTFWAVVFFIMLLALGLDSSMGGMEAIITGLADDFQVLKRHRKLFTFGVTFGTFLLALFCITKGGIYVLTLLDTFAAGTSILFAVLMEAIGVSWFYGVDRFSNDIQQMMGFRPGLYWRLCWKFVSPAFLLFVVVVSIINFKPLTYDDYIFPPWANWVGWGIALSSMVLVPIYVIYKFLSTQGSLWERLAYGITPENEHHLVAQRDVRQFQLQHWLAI

[5] = humans, ref Logan et al., 2007, cited from earlier work
ATX plasma levels = assay type: in vivo, rhesus monkey
[6] = humans; ref Sauer et al., 2003; cited from earlier work
[7] = rats; ref Mattiuz et al., 2003; Kielbasa et al., 2009; cited from earlier work
[8] = biological target: norepinephrine transporters (Homo sapiens, UniProt P23975); settings: read-out: MRB dissociation constant Kd, in vitro; ref Melloni et al., 1984; cited from earlier work
Sequence of norepinephrine transporters (P23975 whole entry): as the sequence (Q9MYW8 1-617) above, with S15N, A19T, V246I, I410V, I427V, G452S, V606I counted along it

[9] = [11C]MRB plasma free fraction by ultrafiltration; assay type: in vitro ADME, rhesus monkey
[10] = test system: norepinephrine transporters (NET); settings: for Global VND/fP estimate (four NET-rich regions): Eq. 5, shared across regions, rSE 22%
[11] = [11C]MRB arterial input function and plasma metabolite analysis; assay type: in vivo, rhesus monkey; settings: for Fraction of unmetabolized [11C]MRB in plasma: n=10
[12] = rhesus monkey, read-out: Percentage of occupancy of NET by ATX
[13] = ATX low dose, Day 2, MA1, one row per monkey
[14] = ATX medium dose, Day 1, MA1, one row per monkey
[15] = Baseline, Day 1, MA1, one row per monkey
[16] = after 40 mg of methylphenidate, n=9, ref Hannestad et al., 2010

## CNCC[C@@H](Oc1ccccc1C)c1ccccc1 [ATX, atomoxetine]
[1]
  Plasma free fraction of ATX: 3%
[2]; plasma, ref Takano et al., 2009a
  ATX IC50 in occupancy study using [18F]F-MeNER-D2: 0.016 µg/mL
[3]; after 100 mg of ATX, ref Logan et al., 2007
  Reduction of [11C]MRB average VT in the occipital cortex: 10%
[4]; ATX IC50 using BPF, caudate as reference region, plasma concentration, rSE 16%
  IC50: 74.4 nM
[4]; all monkeys, increasing ATX infusion doses
  Effect of ATX on [11C]MRB binding (VT/fP) in NET-rich regions: decreased in a dosedependent manner; also recorded: inhibited in a dose-dependent manner
[4]; monkey 1, high-dose scan
  ATX occupancy estimate (Lassen plot): 86±13%
[4]; monkey 1, low-dose scan
  ATX occupancy estimate (Lassen plot): 31±10%
[4]; monkey 1, medium-dose scan
  ATX occupancy estimate (Lassen plot): 56±7%
[4]; monkey 2 (only medium-dose scan acquired)
  ATX occupancy estimate (Lassen plot): 65±18%
[4]; monkey 3, high-dose scan
  ATX occupancy estimate (Lassen plot): 82±6%
[4]; monkey 3, low-dose scan
  ATX occupancy estimate (Lassen plot): 39±14%
[4]; monkey 3, medium-dose scan
  ATX occupancy estimate (Lassen plot): 63±7%
[4]; rhesus monkey, read-out: ATX ED50, dose
  ED50: 0.13 mg/kg
[4]; [12]
  receptor occupancy at 0.012 µg/mL: 27%
  receptor occupancy at 0.132 µg/mL: 80%
[5]; 25 mg oral ATX
  Plasma levels of ATX: 116 ng/mL
[5]; 50 mg oral ATX
  Plasma levels of ATX: 206 ng/mL
[5]; 100 mg oral ATX
  Plasma levels of ATX: 421 ng/mL
ATX plasma levels; mono-exponential fit of 0-, 60-, 120-min samples
  Percent change per hour of ATX plasma level during the PET scan: −1±6 %/h
ATX plasma levels; r^2=0.902, n=7, intercept set to zero
  Slope of regression of ATX plasma level versus maintenance infusion rate: 1.04 kg·h/L and 1.042 kg·h/L
[6]
  Plasma free fraction of ATX: 1.3%
[7]
  Plasma free fraction of ATX: 11–13%

## COc1ccccc1OC(c1ccccc1)C1CNCCO1 (centres unmarked) [MRB]
[8]
  Kd: 2.5 nM

## [11CH3]Oc1ccccc1O[C@@H](c1ccccc1)[C@@H]1CNCCO1 [[^11C]MRB, (S,S)-[^11C]methylreboxetine]
[9]
  Change of plasma free fraction fP from first to second scan of the day: +17%±10
[9]; monkey #1
  Day-to-day variability of plasma free fraction fP: −16%
[9]; monkey #3
  Day-to-day variability of plasma free fraction fP: −68%
[10]; [13]
  Distribution Volume VT, Caudate: 6.2 mL/cm^3 and 2.1 mL/cm^3
  Distribution Volume VT, Midbrain: 9.0 mL/cm^3 and 3.0 mL/cm^3
  Distribution Volume VT, Putamen: 2.4 mL/cm^3 and 6.8 mL/cm^3
[10]; [14]
  Distribution Volume VT, Anterior Cingulate: 11.0 mL/cm^3 and 8.7 mL/cm^3 and 8.3 mL/cm^3
  Distribution Volume VT, Brainstem: 11.5 mL/cm^3 and 7.3 mL/cm^3 and 8.2 mL/cm^3
  Distribution Volume VT, Caudate: 8.7 mL/cm^3 and 6.5 mL/cm^3 and 6.3 mL/cm^3
  Distribution Volume VT, Midbrain: 10.1 mL/cm^3 and 7.5 mL/cm^3 and 7.8 mL/cm^3
  Distribution Volume VT, Occipital: 8.2 mL/cm^3 and 6.4 mL/cm^3 and 5.6 mL/cm^3
  Distribution Volume VT, Putamen: 7.2 mL/cm^3 and 9.9 mL/cm^3 and 8.7 mL/cm^3
  Distribution Volume VT, Thalamus: 11.6 mL/cm^3 and 8.2 mL/cm^3 and 8.5 mL/cm^3
[10]; [15]
  Distribution Volume VT, Anterior Cingulate: 13.3 mL/cm^3 and 10.1 mL/cm^3 and 10.9 mL/cm^3
  Distribution Volume VT, Brainstem: 16.3 mL/cm^3 and 10.2 mL/cm^3 and 11.1 mL/cm^3
  Distribution Volume VT, Midbrain: 13.3 mL/cm^3 and 10.5 mL/cm^3 and 9.4 mL/cm^3
  Distribution Volume VT, Occipital: 8.4 mL/cm^3 and 6.6 mL/cm^3 and 6.4 mL/cm^3
  Distribution Volume VT, Putamen: 6.3 mL/cm^3 and 8.9 mL/cm^3 and 6.6 mL/cm^3
  Distribution Volume VT, Thalamus: 15.5 mL/cm^3 and 10.7 mL/cm^3 and 12.7 mL/cm^3
[10]; Baseline, Day 1, MA1 t*=30 min, one row per monkey #1-#3
  Distribution Volume VT, Caudate: 7.7 mL/cm^3 and 6.5 mL/cm^3 and 5.9 mL/cm^3
[10]; Bmax/Kd set to zero
  VND/fP in the putamen: 30 mL/cm^3
[10]
  Global VND/fP estimate (four NET-rich regions): 19±4 mL/cm^3
[10]; listed as [^11C] MRB
  Global VND/fP estimate (four NET-rich regions): 19 mL/cm^3
[10]; Eq. 5, rSE 15%
  VND/fP estimate (four high binding regions plus occipital cortex): 19± 3 mL/cm^3
[10]; baseline VT/fP divided by global VND/fP, minus one, n=3
  Binding potential BPND in the thalamus: 1.8±0.3
[10]; computed from in vitro Kd 2.5 nM, NET density 23–72 nM and fND
  Expected value of BPND in the thalamus: 0.46–1.44
[10]; fND=fP/VND, from VND/fP 19 mL/cm^3
  Tissue free fraction fND: ~5%
[10]; n=2, unit not given
  VT/fP after blockade by the highest dose of ATX, anterior cingulate cortex: 24±3
  VT/fP after blockade by the highest dose of ATX, brainstem: 24±1
  VT/fP after blockade by the highest dose of ATX, midbrain: 23±1
  VT/fP after blockade by the highest dose of ATX, thalamus: 26±3
[10]; n=3
  Normalized distribution volume VT/fP at baseline, caudate nucleus: 28±3 mL/cm^3
  Normalized distribution volume VT/fP at baseline, occipital cortex: 30±2 mL/cm^3
  Normalized distribution volume VT/fP at baseline, putamen: 30±2 mL/cm^3
[10]; or a higher non-specific binding
  Specific binding in the NET-poor regions (caudate, putamen and occipital): ≤ 30%
[11]; 20 min post-injection
  Fraction of unmetabolized [11C]MRB in plasma: 42±8%
[11]; 90 min post-injection
  Fraction of unmetabolized [11C]MRB in plasma: 25±4%
[11]; throughout the scans
  Whole blood to plasma radioactivity concentration ratio: 0.94±0.13

## [2H]C([2H])([18F])Oc1ccccc1O[C@@H](c1ccccc1)[C@H]1CNCCO1 [[^18F]MeNER-D2]
[2]; ref Seneca et al., 2006
  BPND in the thalamus: 0.26±0.06
[2]; ref Takano et al., 2009a,b
  BPND in the thalamus: 0.7±0.1

## COC(=O)C(c1ccccc1)C1CCCCN1 (centres unmarked) [methylphenidate]
[3]; [16]
  Reduction of [11C]MRB VT in the occipital cortex: 9±17%
  Reduction of [11C]MRB VT/fP in the occipital cortex: 5±15%
